Assay results reported in patent US10010541B2, “Modulation of tissue transglutaminase activation in disease” (The Board of Trustees of the Leland Stanford Junior …, priority 2014, dated 2018).

Experiments:
TG2 [1] = biological target: T1, TG2 (Homo sapiens, UniProt P21980); experiment: glutamate dehydrogenase-coupled deamidation assay, substrate Cbz-Gln-Gly; format: biochemical; settings: irreversible inhibition model, full progress curves
T1 sequence (P21980 1-687): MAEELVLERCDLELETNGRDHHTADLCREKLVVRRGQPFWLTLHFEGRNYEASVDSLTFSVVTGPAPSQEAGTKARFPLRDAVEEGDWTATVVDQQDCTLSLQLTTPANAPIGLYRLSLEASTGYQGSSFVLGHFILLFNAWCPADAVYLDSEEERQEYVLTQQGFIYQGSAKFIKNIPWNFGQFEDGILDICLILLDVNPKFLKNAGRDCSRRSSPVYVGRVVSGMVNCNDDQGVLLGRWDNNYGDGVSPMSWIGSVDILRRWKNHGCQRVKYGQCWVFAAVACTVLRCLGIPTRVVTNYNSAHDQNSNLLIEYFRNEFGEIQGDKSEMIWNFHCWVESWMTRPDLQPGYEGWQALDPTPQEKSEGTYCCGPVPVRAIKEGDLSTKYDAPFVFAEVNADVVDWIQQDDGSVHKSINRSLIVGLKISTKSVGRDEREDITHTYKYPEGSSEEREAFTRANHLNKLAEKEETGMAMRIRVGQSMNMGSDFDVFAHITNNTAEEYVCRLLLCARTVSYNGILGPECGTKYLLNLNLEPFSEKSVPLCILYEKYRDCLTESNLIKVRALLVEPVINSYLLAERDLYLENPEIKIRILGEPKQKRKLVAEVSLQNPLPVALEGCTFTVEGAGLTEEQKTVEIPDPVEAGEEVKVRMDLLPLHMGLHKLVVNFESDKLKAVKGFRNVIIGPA

TG1 = biological target: T2, TG1 (Homo sapiens, UniProt P22735); experiment: glutamate dehydrogenase-coupled deamidation assay, substrate Cbz-Gln-Ser; format: biochemical; settings: irreversible inhibition model, full progress curves
T2 sequence (P22735 1-817): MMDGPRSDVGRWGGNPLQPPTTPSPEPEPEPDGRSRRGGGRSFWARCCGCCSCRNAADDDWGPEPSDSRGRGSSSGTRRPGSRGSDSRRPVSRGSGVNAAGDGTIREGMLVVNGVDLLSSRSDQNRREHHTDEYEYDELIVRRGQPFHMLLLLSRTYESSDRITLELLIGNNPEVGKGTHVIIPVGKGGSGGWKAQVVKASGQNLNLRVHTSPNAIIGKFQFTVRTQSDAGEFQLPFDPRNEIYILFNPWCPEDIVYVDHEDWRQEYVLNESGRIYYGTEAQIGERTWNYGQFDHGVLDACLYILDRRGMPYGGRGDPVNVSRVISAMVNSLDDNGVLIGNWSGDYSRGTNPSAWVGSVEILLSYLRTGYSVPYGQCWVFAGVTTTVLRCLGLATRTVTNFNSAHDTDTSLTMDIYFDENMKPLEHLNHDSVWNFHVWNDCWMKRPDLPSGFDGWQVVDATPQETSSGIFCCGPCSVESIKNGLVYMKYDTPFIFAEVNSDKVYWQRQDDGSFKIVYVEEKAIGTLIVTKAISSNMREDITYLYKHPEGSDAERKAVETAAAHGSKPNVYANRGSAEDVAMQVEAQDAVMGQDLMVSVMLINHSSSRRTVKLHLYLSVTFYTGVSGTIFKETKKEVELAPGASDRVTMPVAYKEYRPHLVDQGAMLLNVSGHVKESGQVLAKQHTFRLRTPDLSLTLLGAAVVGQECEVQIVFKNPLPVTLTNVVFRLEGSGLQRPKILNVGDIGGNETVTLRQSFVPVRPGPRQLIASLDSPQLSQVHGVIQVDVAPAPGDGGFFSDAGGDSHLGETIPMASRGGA

TG2 [2] = biological target: T3, TG2 (Mus musculus, UniProt P21981); experiment: TG2 activity (5-BP probe) in tissues of LPS-induced septic mice; format: in vivo; settings: septic mice (LPS 5 mg/kg iv); 50 mg/kg intraperitoneally
T3 construct: host or cells: mice (in vivo)
T3 sequence (P21981 1-686): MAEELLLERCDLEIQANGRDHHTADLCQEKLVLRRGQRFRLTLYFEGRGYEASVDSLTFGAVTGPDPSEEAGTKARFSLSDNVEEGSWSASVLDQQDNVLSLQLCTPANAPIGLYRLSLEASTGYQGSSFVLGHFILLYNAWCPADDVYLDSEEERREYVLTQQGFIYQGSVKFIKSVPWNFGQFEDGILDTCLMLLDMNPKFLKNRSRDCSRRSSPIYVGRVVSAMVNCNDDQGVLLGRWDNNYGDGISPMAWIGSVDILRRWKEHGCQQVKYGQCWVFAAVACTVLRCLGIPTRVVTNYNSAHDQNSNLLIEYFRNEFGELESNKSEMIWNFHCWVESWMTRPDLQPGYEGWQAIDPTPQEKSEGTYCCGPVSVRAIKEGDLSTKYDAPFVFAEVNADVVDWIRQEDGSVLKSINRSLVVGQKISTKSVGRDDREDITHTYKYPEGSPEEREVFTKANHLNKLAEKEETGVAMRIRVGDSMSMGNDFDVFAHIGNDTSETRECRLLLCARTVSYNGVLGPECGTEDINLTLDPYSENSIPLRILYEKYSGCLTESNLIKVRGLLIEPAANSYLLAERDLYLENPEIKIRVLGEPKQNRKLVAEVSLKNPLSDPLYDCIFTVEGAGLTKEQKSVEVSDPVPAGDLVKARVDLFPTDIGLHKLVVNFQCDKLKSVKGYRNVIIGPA
Experimental: FIG. 2: TG2 is active in septic mice and can be inhibited by the intraperitoneal administration of 50 mg/kg CK996: Panels (A) through (C) depict tissues from the liver, lung and small intestine from septic male BL6 mice that were stained for TG2 protein (top row) or TG2 activity (middle row). The bottom row depicts the merged images from the TG2 protein and activity channel, respectively. Tissues from mice that had received the TG2 inhibitor CK996 are shown in the right set of images in each panel whereas tissues from control mice that received vehicle only are shown in the left set of images. Panel (D) quantifies the ratio of TG2 activity to TG2 protein signal intensity. All mice in this study received lipopolysaccharide (LPS, 5 mg/kg i.v., at t=0) and the TG2 activity-based probe 5-biotinamidopentylamine (5-BP, 100 mg/kg i.p., at t=0 and 90 min)(Dafik et al., 2012; Siegel et al., 2008). One cohort of mice additionally received an intraperitoneal dose of the TG2 inhibitor CK996 (50 mg/kg i.p., at t=0 and 60 min) in vehicle (PBS with 10% DMSO and 2% 2,6-di-(OMe)-beta-cyclodextrin), whereas the control mice received the vehicle alone. At 3 hours the mice were euthanized, tissues collected and frozen in OCT medium and then TG2 protein and activity (5-BP) stained, imaged and quantified as described in the literature (Diraimondo et al., 2013 ACS Chem. Biol.). […]

SMILES: O=C(N[C@@H]1C[C@@H](C(=O)NC[C@@H]2CC(Br)=NO2)N(C(=O)OCc2cnc3ccccc3c2)C1)c1cccnc1 [Compound 5, (2S,4R)-quinolin-3-ylmethyl 2-((((S)-3-bromo-4,5-dihydroisoxazol-5-yl)methyl)carbamoyl)-4-(nicotinamido)pyrrolidine-1-carboxylate]
- kinh/Ki TG2 (TG2 [1]): 108 mM⁻¹ min⁻¹
- kinh/Ki TG1 (TG1): 20.0 mM⁻¹ min⁻¹
- TG2 activity in intestines, livers and lungs (TG2 [2]): fully suppressed
